Source: publication PMC6273229, “Imidazopyranotacrines as Non-Hepatotoxic, Selective Acetylcholinesterase Inhibitors, and Antioxidant Agents for Alzheimer′s Disease Therapy” (Molecules, 2016)
Converted amounts (≈) assume the structure as drawn. “And” between values parts separate entries of the source, which are not always exact repeats. Equal entries are not always repeated.

Experiments:
[1] = target: AChE from Electrophorus electricus (EeAChE) (Electrophorus electricus, UniProt O42275); experiment: biochemical; conditions: for solubility: pH 8
Sequence of AChE from Electrophorus electricus (EeAChE) (O42275 24-633): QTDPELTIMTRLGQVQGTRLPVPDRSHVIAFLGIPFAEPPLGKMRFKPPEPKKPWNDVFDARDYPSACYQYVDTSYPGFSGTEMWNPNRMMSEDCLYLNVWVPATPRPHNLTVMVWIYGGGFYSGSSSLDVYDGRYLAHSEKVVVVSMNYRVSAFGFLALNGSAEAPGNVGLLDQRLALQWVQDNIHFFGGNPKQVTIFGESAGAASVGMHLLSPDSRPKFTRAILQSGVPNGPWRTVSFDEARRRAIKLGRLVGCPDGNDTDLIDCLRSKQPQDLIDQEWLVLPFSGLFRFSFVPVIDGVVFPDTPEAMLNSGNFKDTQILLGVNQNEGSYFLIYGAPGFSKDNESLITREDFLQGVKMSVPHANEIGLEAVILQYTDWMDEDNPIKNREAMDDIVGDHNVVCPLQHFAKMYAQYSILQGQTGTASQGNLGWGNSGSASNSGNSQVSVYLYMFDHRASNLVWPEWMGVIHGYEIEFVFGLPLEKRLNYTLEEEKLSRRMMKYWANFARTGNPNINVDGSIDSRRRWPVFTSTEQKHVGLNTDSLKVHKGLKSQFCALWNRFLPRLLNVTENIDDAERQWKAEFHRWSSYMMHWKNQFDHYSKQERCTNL
Description: The inhibitory activity on AChE from Electrophorus electricus (type VI-S, Sigma, Milan, Italy), was evaluated spectrophotometrically by the method of Ellman et al.. AChE stock solution was prepared by dissolving EeAChE lyophilized powder (Sigma) in 0.1 M phosphate buffer (pH = 8.0) containing 0.1% Triton X-100. Stock solutions of the tested compounds (1 mM) were prepared in MeOH/H2O 50/50 (v/v) and diluted in MeOH/H2O 50/50 (v/v). […] Assay solutions with and without inhibitor were preincubated at 37 °C for 20 min followed by the addition of substrate. Blank solutions containing all components except EeAChE were prepared in parallel to account for the non-enzymatic hydrolysis of the substrate. Initial rate assays were performed at 37 °C with a Jasco V-530 double beam spectrophotometer. […] The velocity in the presence and absence of inhibitor were compared and % inhibition was calculated. The results were plotted by placing the percentage of inhibition in function of the decimal log of the final inhibitor concentration. Linear regression and IC50 values were calculated using Microcal Origin 3.5 software (Microcal Software, […]).

[2] = Oxygen radical absorbance capacity by fluorescence (ORAC-FL); conditions: Trolox equivalents, mean ± SD
Description: The antioxidant power of the imidazopyranotacrines 1–13 was determined by the oxygen radical absorbance capacity by fluorescence (ORAC-FL) method using fluorescein as fluorescent probe and Trolox (6-hydroxy-2,5,7,8-tetramethylchroman-2-carboxylic acid) as a reference compound. Results are expressed as Trolox equivalents (μmol Trolox per μmol test compound).
The radical scavenging activity of imidazopyranotacrines 1–13 was determined by the ORAC-FL method using a Varioskan Flash plate reader with built-in injectors (Thermo Scientific). Trolox, 2,2′-azobis(amidinopropane) dihydrochloride (AAPH) and fluorescein (FL) were purchased from Sigma-Aldrich. The reaction was performed at 37 °C in 75 mM phosphate buffer (pH = 7.4), and the final volume reaction mixture was 200 µL. The final concentrations were 1–8 µM for Trolox and 0.1–1 µM for the tested compounds. Briefly, in a black 96-well microplate (Nunc), antioxidant (20 µL) and fluorescein (120 µL) were incubated for 15 min at 37 °C. Then, 2,2′-azobis(amidinopropane) dihydrochloride (60 µL) was added using the built-in injector. […] All assays were made in triplicate and at least three different assays were performed for each sample.
The net AUC corresponding to a sample was calculated as follows: Net AUC = AUCantioxidant − AUCblank(2)
Regression equations were calculated by plotting the net AUC against the antioxidant concentration. The ORAC value was obtained by dividing the slope of the latter curve by the slope of the Trolox curve obtained in the same assay. ORAC values was expressed as µmol of Trolox equivalent/µmol of imidazopyranotacrines. Data are expressed as mean ± SD.

[3] = target: T1, BuChE from horse serum (eqBuChE) (Equus caballus, UniProt P81908); experiment: biochemical; conditions: mean ± SEM
T1 construct: BuChE from horse serum (lyophilized powder, Sigma-Aldrich); purchased Sigma-Aldrich; host or cells: horse serum
T1 sequence (P81908 whole entry): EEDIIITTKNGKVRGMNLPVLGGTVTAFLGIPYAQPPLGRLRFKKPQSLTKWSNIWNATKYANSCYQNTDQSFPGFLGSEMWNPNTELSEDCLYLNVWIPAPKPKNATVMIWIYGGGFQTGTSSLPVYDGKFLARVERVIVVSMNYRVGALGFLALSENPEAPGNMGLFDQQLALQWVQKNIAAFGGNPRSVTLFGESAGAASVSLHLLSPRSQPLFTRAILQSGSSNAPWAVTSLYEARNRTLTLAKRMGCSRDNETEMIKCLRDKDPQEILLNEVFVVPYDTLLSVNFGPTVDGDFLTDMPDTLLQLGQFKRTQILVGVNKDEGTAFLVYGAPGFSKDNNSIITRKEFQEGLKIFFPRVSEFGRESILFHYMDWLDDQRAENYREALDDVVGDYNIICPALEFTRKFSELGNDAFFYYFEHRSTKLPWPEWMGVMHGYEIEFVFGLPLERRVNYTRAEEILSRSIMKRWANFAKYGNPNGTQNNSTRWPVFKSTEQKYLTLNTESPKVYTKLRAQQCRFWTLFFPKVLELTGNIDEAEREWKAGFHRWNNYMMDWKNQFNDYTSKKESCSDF
Description: The % inhibitory activity on BuChE from horse serum (lyophilized powder, Sigma-Aldrich), was evaluated spectrophotometrically by the method of Ellman et al.. BuChE stock solutions were first dissolved in 0.1 M phosphate buffer (pH 8.0) and then aliquoted in small vials. Compounds were dissolved in DMSO at 10 mM. The reaction was carried out in a final volume of 3 mL of a 0.1 M phosphate-buffered solution at pH 8.0, containing 5,5′-dithiobis-2-nitrobenzoic acid (DTNB, 2625 µL, 0.35 mM, final concentration), eqBuChE (60 µL, 0.05 U/mL final concentration), tested compound (3 µL, 10 µM, final concentration) and 1% w/v Bovine Serum Albumin phosphate-buffered (pH 8.0) solution (BSA, 40 µL). The inhibition with respect to control without compound was determined by pre-incubating this mixture at rt with each compound for 10 min. After this period, butyrylthiocholine iodide (150 µL, 0.5 mM final concentration) was added and incubated for 15 min at rt.

[4] = read-out: EeAChE % inhibition at the highest concentration

**Q.** Which IC50 [1] does the source give for CCOC(=O)C1=C(C)Oc2nc3c(c(N)c2C1c1nccn1C)CCC3 (centres unmarked) [Compound 1, Ethyl 5-amino-2-methyl-4-(1-methyl-1H-imidazol-2-yl)-4,6,7,8-tetrahydrocyclopenta[b]pyrano[3,2-e]pyridine-3-carboxylate] here?
**A.** The IC50 was 12.9 ± 0.3 µM.

**Q.** What about the ORAC [2] of the same molecule?
**A.** Its ORAC is 0.34 ± 0.03 µmol Trolox/µmol compound.

**Q.** And the inhibition at 10 µM [3]?
**A.** Its inhibition at 10 µM is 25.6 ± 0.7%.

**Q.** With CCOC(=O)C1=C(C)Oc2nc3c(c(N)c2C1c1nccn1C)CCCCC3 (centres unmarked) [Compound 3, Ethyl 5-amino-2-methyl-4-(1-methyl-1H-imidazol-2-yl)-4,6,7,8,9,10-hexahydrocyclohepta[b]pyrano[3,2-e]pyridine-3-carboxylate] as the molecule, how does the IC50 [1] read?
**A.** Its IC50 is 432 ± 84 µM.

**Q.** And the ORAC [2]?
**A.** Its ORAC is 1.99 ± 0.23 µmol Trolox/µmol compound.

**Q.** And the inhibition at 10 µM [3]?
**A.** Its inhibition at 10 µM is 32.2 ± 0.9%.

**Q.** For Cn1ccnc1C1C2=C(CC(C)(C)CC2=O)Oc2nc3c(c(N)c21)CCC3 (centres unmarked) [Compound 5, 11-Amino-7,7-dimethyl-10-(1-methyl-1H-imidazol-2-yl)-2,3,6,7,8,10-hexahydrochromeno[2,3-b]cyclopenta[e]pyridin-9(1H)-one], which IC50 [1] is on record?
**A.** Its IC50 is 158 ± 33 µM.

**Q.** What about the ORAC [2] of the same molecule?
**A.** Its ORAC is 1.70 ± 0.33 µmol Trolox/µmol compound.

**Q.** And the inhibition at 10 µM [3]?
**A.** Its inhibition at 10 µM is 12.9 ± 0.5%.

**Q.** Which IC50 [1] does the source give for Cn1ccnc1C1C2=C(CC(C)(C)CC2=O)Oc2nc3c(c(N)c21)CCCC3 (centres unmarked) [Compound 6, 11-Amino-3,3-dimethyl-12-(1-methyl-1H-imidazol-2-yl)-2,3,4,7,8,9,10,12-octahydro-1H-chromeno[2,3-b]quinolin-1-one] here?
**A.** Its IC50 is 37.8 ± 1.2 µM.

**Q.** And the ORAC [2]?
**A.** Its ORAC is 2.34 µmol Trolox/µmol compound and 2.34 ± 0.31 µmol Trolox/µmol compound.

**Q.** What about the inhibition at 10 µM [3] of the same molecule?
**A.** The inhibition at 10 µM was 33.5 ± 1.7%.

**Q.** Which IC50 [1] does the source give for Cn1ccnc1C1c2c(nc3c(c2N)CCC3)Oc2ccc3ccccc3c21 (centres unmarked) [Compound 7, 13-(1-Methyl-1H-imidazol-2-yl)-9,10,11,13-tetrahydrobenzo[5,6]chromeno[2,3-b]cyclopenta[e]pyridin-12-amine] here?
**A.** The IC50 was 8.41 ± 0.14 µM.

**Q.** And the ORAC [2]?
**A.** Its ORAC is 1.47 ± 0.13 µmol Trolox/µmol compound.

**Q.** And the inhibition at 10 µM [3]?
**A.** Its inhibition at 10 µM is 50.5 ± 7.3%.

**Q.** With Cn1ccnc1C1c2c(nc3c(c2N)CCCCC3)Oc2ccc3ccccc3c21 (centres unmarked) [Compound 9, 15-(1-Methyl-1H-imidazol-2-yl)-9,10,11,12,13,15-hexahydrobenzo[5,6]chromeno[2,3-b]cyclohepta[e]pyridin-14-amine] as the molecule, how does the solubility [1] read?
**A.** Its solubility is 15 µM (≈ 5.95 µg/mL).

**Q.** What about the inhibition at 15 µM [1, 4] of the same molecule?
**A.** The inhibition at 15 µM was under 15%.

**Q.** And the ORAC [2]?
**A.** The ORAC was 1.35 ± 0.13 µmol Trolox/µmol compound.

**Q.** What about the inhibition at 10 µM [3] of the same molecule?
**A.** The inhibition at 10 µM was 15.1 ± 4.7%.

**Q.** Which results are given for Cn1ccnc1C1c2ccc3ccccc3c2Oc2nc3c(c(N)c21)CCCCC3 (centres unmarked) [Compound 11, 7-(1-Methyl-1H-imidazol-2-yl)-7,9,10,11,12,13-hexahydrobenzo[7,8]chromeno[2,3-b]cyclohepta[e]pyridin-8-amine]?
**A.** solubility [1]: 25 µM (≈ 9.91 µg/mL); inhibition at 25 µM [1, 4]: < 15%; ORAC [2]: 2.33 µmol Trolox/µmol compound and 2.33 ± 0.13 µmol Trolox/µmol compound; inhibition at 10 µM [3]: 20.3 ± 3.7%

**Q.** With Cn1ccnc1C1c2ccc3cccnc3c2Oc2nc3c(c(N)c21)CCC3 (centres unmarked) [Compound 12, 7-(1-Methyl-1H-imidazol-2-yl)-7,9,10,11-tetrahydrocyclopenta[5′,6′]pyrido[3′,2′:5,6]pyrano[3,2-h]quinolin-8-amine] as the molecule, how does the IC50 [1] read?
**A.** Its IC50 is 15.3 ± 0.6 µM.

**Q.** What about the ORAC [2] of the same molecule?
**A.** Its ORAC is 1.88 ± 0.07 µmol Trolox/µmol compound.

**Q.** What about the inhibition at 10 µM [3] of the same molecule?
**A.** The inhibition at 10 µM was 27.5 ± 1.1%.

**Q.** Which IC50 [1] does the source give for Cn1ccnc1C1c2ccc3cccnc3c2Oc2nc3c(c(N)c21)CCCCC3 (centres unmarked) [Compound 13, 7-(1-Methyl-1H-imidazol-2-yl)-7,9,10,11,12,13-hexahydrocyclohepta[5′,6′]pyrido[3′,2′:5,6]pyrano[3,2-h]quinolin-8-amine] here?
**A.** Its IC50 is 30 ± 2 µM.

**Q.** And the ORAC [2]?
**A.** The ORAC was 2.25 µmol Trolox/µmol compound and 2.25 ± 0.29 µmol Trolox/µmol compound.

**Q.** And the inhibition at 10 µM [3]?
**A.** Its inhibition at 10 µM is 75.7 ± 2.3%.
